Columns and labels:
[1] = biological target: extended human kinome (kinase-like proteins) (Homo sapiens, UniProt P27144); test: Whole cell quantitative proteomics: extended kinome hits
[2] = biological target: T1, extended human kinome (kinase-like proteins) (Homo sapiens, UniProt Q7L8L6); test: as above; conditions: Accession Q7L8L6
T1 sequence (Q7L8L6 28-764): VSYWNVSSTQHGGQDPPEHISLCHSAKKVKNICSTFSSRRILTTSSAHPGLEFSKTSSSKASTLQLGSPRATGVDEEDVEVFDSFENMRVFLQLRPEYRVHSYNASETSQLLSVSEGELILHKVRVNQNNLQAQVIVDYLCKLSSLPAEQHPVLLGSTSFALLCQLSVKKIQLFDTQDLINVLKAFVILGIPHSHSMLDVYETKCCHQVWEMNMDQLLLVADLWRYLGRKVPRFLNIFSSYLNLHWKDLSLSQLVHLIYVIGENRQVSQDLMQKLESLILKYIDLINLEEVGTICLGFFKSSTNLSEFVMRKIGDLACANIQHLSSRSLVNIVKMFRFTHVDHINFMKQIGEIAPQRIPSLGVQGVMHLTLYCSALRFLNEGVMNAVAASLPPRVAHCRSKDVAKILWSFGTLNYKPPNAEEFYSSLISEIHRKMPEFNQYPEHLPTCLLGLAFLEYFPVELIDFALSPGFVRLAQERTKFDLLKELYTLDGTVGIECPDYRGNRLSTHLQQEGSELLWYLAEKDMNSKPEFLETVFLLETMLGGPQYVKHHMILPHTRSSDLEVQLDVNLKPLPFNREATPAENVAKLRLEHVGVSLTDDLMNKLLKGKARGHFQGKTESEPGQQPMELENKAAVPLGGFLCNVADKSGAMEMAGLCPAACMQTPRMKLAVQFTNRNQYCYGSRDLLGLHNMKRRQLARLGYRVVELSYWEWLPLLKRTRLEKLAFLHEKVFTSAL

CRBN = biological target: T2, CRBN (Homo sapiens, UniProt Q96SW2); test: Competitive displacement assay for cellular CRBN engagement (BRD4BD2-GFP reporter, dBET6); format: cell-based, H. sapiens; conditions: 5 hours in presence of dBET6
T2 construct: HEK293T cells stably expressing the BRD4BD2-GFP with mCherry reporter; endogenous in cells; host or cells: HEK293T stably expressing BRD4BD2-GFP / mCherry reporter
Protocol: HEK293T cells stably expressing the BRD4BD2-GFP with mCherry reporter were seeded at 30-50% confluency in 384-well plates with 50 μL FluoroBrite™ Dulbecco's Modified Eagle's medium (DMEM) media (Thermo Fisher Scientific. A18967) containing 10% fetal bovine serum (FBS) per well a day before compound treatment. Degrader titrations and 100 nM dBET6 or 250 nM AT1 were dispensed using a D300e Digital Dispenser (HP), normalized to 0.5% DMSO, and incubated with cells for 5 hours. Assay plates were imaged using Acumen® (TTP Labtech), as described above.

[3] = biological target: T3, CRBN-degrader-kinase ternary complexes (Homo sapiens, UniProt Q96SW2); test: FLAG-CRBN affinity purification TMT LC-MS3 (AP-MS) of degrader-mediated ternary complexes; format: cell-based, H. sapiens; conditions: for enriched proteins in the CRBN AP-MS: relative to SB1-G-187 and WH-10417-099
T3 construct: host or cells: HEK293T
Source text: An important aspect of protein degraders is the multifaceted nature of the molecule that enables heightened target selectivity due to differences in complementarity of target-ligase interactions, which is not a consideration when assessing selectivity of inhibitors for target engagement (Famaby el al., Nat Chem Biol 15:672-680 (2019)). For compound-induced degradation to be successful, productive ternary complex formation (ligase-degrader-POI) is necessary for proximity-mediated ubiquitin transfer onto the POI. […] Cellular affinity purification was performed, followed by mass spectrometry (AP-MS) of FLAG-tagged CRBN transiently overexpressed in HEK293T cells. FLAG-CRBN expressing cells were co-treated with proteosome inhibitor and 1 μM of each degrader for 5 h, and the degree of kinase target enrichment was compared to kinase degradation hits in matched global proteomics analysis experiments (FIG. 3A, FIG. 3C). The proteins identified as complexed with CRBN were enriched for kinases as well as their known binding partners such as Cyclin B (CDK1) and RASSF1 (STK4), consistent with the binding profiles of the assayed degraders. All kinases identified by AP-MS except CSNK1A1 were also detected in the HEK293T whole proteome degrader profiling experiment, allowing us to interrogate trends across 52 unique kinases (FIG. 4A; FIG. 11B). Limitations of this experiment include the potential loss of transient or weakly bound complexes in the enrichment and subsequent wash steps, the inherent noise associated with AP-MS relative to global proteomics analysis (Dunham et al., Proteomics 12:1576-1590 (2012): Yugandhar et al., Comput Struct Biotechnol J 17:805-811 (2019)) and the short time point of the experiment, which precludes detection of degradation events with slow kinetics. Therefore, the relationship between the formation of abundant, stable ternary complexes and rapid degradation was assessed.
HEK293T cells were seeded into 15 cm plates and cells were transiently transfected with 8 μg of pNTM-FLAG-CRBN construct using lipofectamine 2000. […] Cells were harvested with non-enzymatic CellStripper™ Dissociation reagent (Corning®), followed by three washes with cold PBS and snap freezing. Cell lysis was performed by the addition of IP lysis buffer (50 mM Tris. pH 7.5, 0.5% NP-40, 1 mM EDTA, 10% glycerol and 200 mM NaCl) containing protease inhibitor cocktail (cOmplete™) and relevant co-treatment (above), followed by end-over-end rotation at 4° C. for 3 hours. Lysate was clarified by centrifugation and salt concentration diluted to 100 mM NaCl with the addition of 0 mM NaCl lysis buffer (containing protease inhibitors and 1 μM of relevant compounds to retain temary complexes throughout binding). Lysate was added to 20 μL of pre-washed anti-FLAG M2 magnetic bead slurry (MilliporeSigma) and incubated with end-over-end rotation at 4° C. overnight. Beads were washed six times with 100 mM NaCl lysis buffer containing 1 μM of relevant degraders to retain ternary complexes throughout wash steps.
Proteins were eluted in a two-step elution with the addition of 0.1 M Glycine hydrochloride (MilliporeSigma) and elution buffered to pH 8.5 using 200 mM Tris buffer, pH 8.5. […] Protein pellets were resuspended in 50 μL of EPPs pH 8 and first digested with 2 μg LysC for 12 h at room temperature (RT), followed by 1 μg of trypsin for 6 hours at 37° C.

[4] = system: protein kinases in MOLT-4 cells; test: Whole cell quantitative proteomics in MOLT-4 cells; conditions: for GCK binding and degradation: 1 μM, 5 h; for kinase degradation over time: MOLT-4, 1 μM, 1, 2, 4, 8 and 12 h
[5] = HEK293T, 1 μM, 5 h, proteasome inhibitor

## CC(=O)c1c(C)c2cnc(Nc3ccc(N4CCN(CCOCCOCCOCCNC(=O)COc5cccc6c5C(=O)N(C5CCC(=O)NC5=O)C6=O)CC4)cn3)nc2n(C2CCCC2)c1=O (centres unmarked) [BSJ.03.123]
[1]; experiment wp084
  logFC AK4 (P27144): −0.5103
[2]; experiment wp084
  logFC FASTKD5: −0.5926

## CN(C)C(=O)c1cc2cnc(Nc3ccc(N4CCN(CCCCNC(=O)COc5cccc6c5C(=O)N(C5CCC(=O)NC5=O)C6=O)CC4)cn3)nc2n1C1CCCC1 (centres unmarked) [BSJ.04.132]
[1]; experiment wp084
  logFC AK4 (P27144): −0.6551
[2]; experiment wp084
  logFC FASTKD5: −0.7073

## Cc1ccc(NC(=O)c2cccc(C(F)(F)F)c2)cc1N1Cc2cnc(Nc3ccc(N4CCN(Cc5cn(CCCCCOc6cccc7c6C(=O)N(C6CCC(=O)NC6=O)C7=O)nn5)CC4)nc3)nc2N(C)C1=O (centres unmarked) [DB0646, N-(3-(7-((6-(4-((1-(5-((2-(2,6-Dioxopiperidin-3-yl)-1,3-dioxoisoindolin-4-yl)oxy)pentyl)-1H-1,2,3-triazol-4-yl)methyl)piperazin-1-v)pyridin-3-yl)amino)-1-methyl-2-oxo-1,4-dihydropyrimido[4,5-d]pyrimidin-3(2H)-yl)-4-methylphenyl)-3-(trifluoromethyl)benzamide]
CRBN
  cellular permeability / CRBN engagement: able to permeate the cell membrane and bind to the CRBN E3 ligase
[3]; [5]
  YES1: ternary complex formation with CRBN versus degradation: complex formation and degradation are sometimes detected together
[3]
  enriched proteins in the CRBN AP-MS: fewer enriched proteins
[4]
  GCK binding and degradation: bound and degraded
  kinase degradation over time: most kinases showed increased degradation over time

## CC(C)(C)c1nc(-c2cccc(NS(=O)(=O)c3c(F)cccc3F)c2F)c(-c2ccnc(NCCOCCNC(=O)CCOCCOCCNc3cccc4c3C(=O)N(C3CCC(=O)NC3=O)C4=O)n2)s1 (centres unmarked) [DD.03.106]
[1]; experiment wp147, 4 uM
  logFC AK4 (P27144): −0.5652
[2]; experiment wp147, 4 uM
  logFC FASTKD5: −0.8688

## CC(C)(C)c1nc(-c2cccc(NS(=O)(=O)c3c(F)cccc3F)c2F)c(-c2ccnc(NCCOCCNC(=O)CCOCCOCCNc3cccc4c3CN(C3CCC(=O)NC3=O)C4=O)n2)s1 (centres unmarked) [DD.03.107]
[1]; experiment wp137
  logFC AK4 (P27144): −0.3942
[1]; experiment wp147, 1 uM
  logFC AK4 (P27144): −0.3992
[1]; experiment wp147, 2 uM
  logFC AK4 (P27144): −0.4045
[1]; experiment wp147, 4 uM
  logFC AK4 (P27144): −0.898
[2]; experiment wp147, 1 uM
  logFC FASTKD5: −0.5985
[2]; experiment wp147, 2 uM
  logFC FASTKD5: −0.6839
[2]; experiment wp147, 4 uM
  logFC FASTKD5: −1.268

## O=C(COc1cccc2c1C(=O)N(C1CCC(=O)NC1=O)C2=O)NCCCCCCCC(=O)NC1(c2ccc(-c3nc4ccn5c(=O)[nH]nc5c4cc3-c3ccccc3)cc2)CCC1 (centres unmarked) [INY.01.140.1]
[1]; experiment wp081
  logFC AK4 (P27144): −0.4309
[2]; experiment wp081
  logFC FASTKD5: −0.4182

## Cc1cnc(Nc2ccc(N3CCN(CCOCCOCCNC(=O)COc4cccc5c4C(=O)N(C4CCC(=O)NC4=O)C5=O)CC3)cc2)nc1Nc1cccc(S(=O)(=O)NC(C)(C)C)c1 (centres unmarked) [JWG.118]
[1]; experiment wp071
  logFC AK4 (P27144): −0.5314

## CNC(=O)c1ccccc1Nc1cc(Nc2ccc(N3CCN(CCOCCOCCNC(=O)CNc4cccc5c4C(=O)N(C4CCC(=O)NC4=O)C5=O)CC3)cc2OC)ncc1C(F)(F)F (centres unmarked) [MFH.5.103.1]
[2]; experiment wp076
  logFC FASTKD5: −0.3493

## Cc1ccc(C(=O)Nc2ccc(CN3CCN(CCCOCCOCCOCCNC(=O)COc4cccc5c4C(=O)N(C4CCC(=O)NC4=O)C5=O)CC3)c(C(F)(F)F)c2)cc1C#Cc1cnc2cccnn12 (centres unmarked) [SB1-G-187, N-(4-((4-(1-((2-(2,6-dioxopiperidin-3-yl)-1,3-dioxoisoindolin-4-yl)oxy)-2-oxo-6,9,12-trioxa-3-azapentadecan-15-yl)piperazin-1-yl)methyl)-3 (trifluoromethyl)phenyl)-3-(imidazo[1,2-b]pyridazin-3-ylethynyl)-4-methylbenzamide]
CRBN
  cellular permeability / CRBN engagement: able to permeate the cell membrane and bind to the CRBN E3 ligase
[3]; [5]
  IRAK1: ternary complex formation with CRBN versus degradation: complex formation and degradation are sometimes detected together
  LYN: ternary complex formation with CRBN versus degradation: complex formation and degradation are sometimes detected together
  YES1: ternary complex formation with CRBN versus degradation: complex formation and degradation are sometimes detected together
[4]
  GCK binding and degradation: bound and degraded

## Cc1ccc(C(=O)Nc2ccc(CN3CCN(CCCOCCOCCOCCNC(=O)COc4cccc5c4C(=O)N(C4CCC(=O)NC4=O)C5=O)CC3)c(C(F)(F)F)c2)cc1C#Cc1cnc2cccnn12 (centres unmarked) [SB1.G.187]
[1]; experiment wp056
  logFC AK4 (P27144): −0.4478
[2]; experiment wp056
  logFC FASTKD5: −0.4238

## CC(C)S(=O)(=O)c1ccccc1Nc1nc(Nc2ccc(N3CCN(CCOCCNC(=O)CNc4cccc5c4C(=O)N(C4CCC(=O)NC4=O)C5=O)CC3)cc2)ncc1Cl (centres unmarked) [SK-3-91]
CRBN
  cellular permeability / CRBN engagement: able to permeate the cell membrane and bind to the CRBN E3 ligase
[3]; [5]
  YES1: ternary complex formation with CRBN versus degradation: complex formation does not predict degradation
[3]
  enriched proteins in the CRBN AP-MS: fewer enriched proteins
[4]
  GCK binding and degradation: not degraded
  kinase degradation over time: most kinases showed increased degradation over time

## CC(C)S(=O)(=O)c1ccccc1Nc1nc(Nc2ccc(N3CCN(CCOCCNC(=O)CNc4cccc5c4C(=O)N(C4CCC(=O)NC4=O)C5=O)CC3)cc2)ncc1Cl (centres unmarked) [SK.3.91]
[1]; experiment wp160, 1 hr
  logFC AK4 (P27144): −0.8232
[2]; experiment wp160, 1 hr
  logFC FASTKD5: −0.8306

## CC(C)S(=O)(=O)c1ccccc1Nc1nc(Nc2ccc(N3CCN(CCOCCOCCNC(=O)CNc4cccc5c4C(=O)N(C4CCC(=O)NC4=O)C5=O)CC3)cc2)ncc1Cl (centres unmarked) [TL12.186]
[2]; experiment wp137
  logFC FASTKD5: −0.3409

## C=CCn1c(=O)c2cnc(Nc3ccc(N4CCN(CCCNc5cccc6c5C(=O)N(C5CCC(=O)NC5=O)C6=O)CC4)cc3)nc2n1-c1cccc(C(C)(C)O)n1 (centres unmarked) [ZNL.02.096]
[2]; experiment wp118
  logFC FASTKD5: −0.4552
